Values joined by “and” are separate entries in the source; they are usually repeats but may differ in a detail not shown here. Identical values can stand only once.
Tested on: 889142-216-R-J1-PDC complex spheroid viability
Experiment: Anticancer human tumor 889142-216-R-J1-PDC patient-derived bladder carcinoma cell line growth inhibition [POLQ]
Settings: for viability, T/C: stronger effect = lower value
Procedure: Multicellular complex tumor spheroid response to Polymerase (POL) inhibitors (novobiocin, ART-558, RP6685) in combination with a variety of drugs and investigational agents in selected tumor cell lines
The POL inhibitors (novobiocin, ART-558, and RP6685) were evaluated both individually and in combination with standard of care and investigational anticancer small molecules within a complex spheroid model of solid tumors. . Complex spheroids include a stromal component modeled by human endothelial cells (HUVEC) and fibroblasts modeled by human mesenchymal stem cells (MSCs). The concentration ranges selected for each drug and investigational agent were based upon clinically achievable concentrations if the clinical Cmax of the agent was known.
Compounds. The drugs and investigational agents: novobiocin (NSC847541), ART-558 (NSC835418), RP-6685 (NSC848927), peposertib (NSC802822), ceralasertib (NSC780249), elimusertib (NSC800525), camonsertib (NSC841442), AZD-1390 (NSC803789), olaparib (NSC753686), talazoparib (NSC767125), rucaparib (NSC756644), sotorasib (NSC818433), MRTX-1133 (NSC836407), SN-38 (NSC673596), topotecan (NSC609699), epotoside (NSC141540), doxorubicin (NSC123127), gemcitabine (NSC613327), 5-fluorouracil (NSC19893), paclitaxel (NSC125973), vemurafenib (NSC761431), MSA-2 (NSC828583), SN-011 (NSC837082), adavosertib (NSC754352), prexasertib (NSC758257), carboplatin (NSC241240) and oxaliplatin (NSC266046), were obtained from the National Cancer Institute (NCI) Developmental Therapeutics Program Chemical Repository (21). The FDA-approved anticancer drug set is available from the Developmental Therapeutics Program at https://dtp.cancer.gov/organization/dscb/obtaining/. […] The stock solutions were prepared in dimethyl sulfoxide (DMSO, Sigma-Aldrich, St. Louis, MO, cat. D2650), except for the platinum compounds which were prepared in saline (Quality Biological, Gaithersburg, MD, cat. 114-055-101), at 800-fold the tested concentration and stored at -70 degrees C prior to their use. All drugs and investigational agents were tested over a range starting from a high concentration at or near the clinical Cmax and decreasing in half-log increments. If the clinical Cmax for an agent had not been determined, the highest concentration tested was 10 microM, except for SN-38, which was tested at a high concentration of 1 microM.
Cell Culture. All cells were maintained in an incubator at 37 degrees C and 5% CO2 with 95% humidity. The PDC lines were cultured according to standard operating procedures established by the NCI PDMR (https://pdmr.cancer.gov). Table 3 of the manuscript, lists the cell lines along with the number of the three cell types plated to form the mct-spheroids and media for tumor cell growth. After thawing, all PDC lines, except 997537-175-T-J1-PDC and 415267-285-R-J2-PDC, were cultured in Matrigel-coated flasks prepared with a working solution of 1X Ham's F-12 nutrient mix, without supplementation (Thermo Fisher Scientific, cat. 11765054), 100 U/mL penicillin-streptomycin (Thermo Fisher Scientific, cat. 15140122), and 2.5% Matrigel (Corning Inc., Corning, NY, cat. 354248) for the first three passages. The two PDC lines 997537-175-T-J1-PDC and 415267-285-R-J2-PDC were cultured on uncoated flasks. The 857933-349-R-J2-PDC line was cultured in 6C/Colon 1B media containing advanced DMEM/F-12 (Thermo Fisher Scientific, cat. 12634028), 10 mM HEPES (Thermo Fisher Scientific, cat. 15630080), 1X GlutaMAX supplement (Thermo Fisher Scientific, cat. 35050061), 0.1 mg/mL primocin (InvivoGen, San Diego, CA, cat. ant-pm-2), 10% defined fetal bovine serum, heat inactivated (HyClone Laboratories Inc., Logan, UT, cat. SH30070.03HI), 50% L-WRN conditioned media (ATCC, cat. CRL-3276), 1.25 mM N-Acetyl-L-cysteine (Sigma-Aldrich, cat. A9165), 10 mM nicotinamide (Sigma-Aldrich, cat. N0636), 1X B-27 supplement (Thermo Fisher Scientific, cat. 17504044), 1X N-2 supplement (Thermo Fisher Scientific, cat. […]
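Further: spheroids exposed to compounds for seven days.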
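Wherever viability, T/C is given: 100% = DMSO vehicle control viability.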

SMILES: Cn1ncnc1[C@H]1c2n[nH]c(=O)c3cc(F)cc(c23)N[C@@H]1c1ccc(F)cc1
- viability, T/C (compound 0.000316 µM): 116% and 120% and 92.5%
- viability, T/C (compound 0.001 µM): 81.2% and 90.7% and 78%
- viability, T/C (compound 0.00316 µM): 84.9% and 99.1% and 83.2%
- viability, T/C (compound 0.01 µM): 93.2% and 89.5% and 78.9%
- viability, T/C (compound 0.0316 µM): 87.3% and 104% and 84.8%
- viability, T/C (compound 0.1 µM): 76.4% and 64.8% and 72.8%
- IC50 (curve of compound): > 100 nM

SMILES: CC1COCCN1c1cc(C2(S(C)(=N)=O)CC2)nc(-c2ccnc3[nH]ccc23)n1 (configuration not stated)
- viability, T/C (compound 0.0316 µM): 125% and 90% and 99.5%
- viability, T/C (compound 0.1 µM): 92.6% and 98.3% and 102%
- viability, T/C (compound 0.316 µM): 98.3% and 75.8% and 74.6%
- viability, T/C (compound 1 µM): 53.5% and 71.3% and 53.6%
- viability, T/C (compound 3.16 µM): 51.8% and 48.8% and 44.5%
- viability, T/C (compound 10 µM): 45.6% and 58% and 46.8%
- IC50 (curve of compound): 3750 nM and > 10000 nM and 1280 nM

SMILES: COc1cccc(OCCCN)c1-c1cc(Nc2cnc(C#N)cn2)n[nH]1
- viability, T/C (compound 0.00316 µM): 93.9% and 84.5% and 84.6%
- viability, T/C (compound 0.01 µM): 53.2% and 89.7% and 71.7%
- viability, T/C (compound 0.0316 µM): 42.5% and 62.6% and 50.3%
- viability, T/C (compound 0.1 µM): 34.7% and 51.5% and 47.2%
- viability, T/C (compound 0.316 µM): 37.9% and 47.7% and 42.3%
- viability, T/C (compound 1 µM): 34.4% and 42.8% and 40.6%
- IC50 (curve of compound): 14.1 nM and 81.8 nM and 41 nM

SMILES: COc1cc2cc(C(=O)CCC(=O)O)sc2cc1OC
- viability, T/C (compound 0.0316 µM): 105% and 116% and 128%
- viability, T/C (compound 0.1 µM): 140% and 92% and 89.7%
- viability, T/C (compound 0.316 µM): 89.4% and 92.1% and 94.9%
- viability, T/C (compound 1 µM): 115% and 88.4% and 103%
- viability, T/C (compound 3.16 µM): 79.9% and 80.8% and 98%
- viability, T/C (compound 10 µM): 67.3% and 72.8% and 95.3%
- IC50 (curve of compound): > 10000 nM

SMILES: Cn1ncnc1[C@H]1c2n[nH]c(=O)c3cc(F)cc(c23)N[C@@H]1c1ccc(F)cc1 + COC1C(OC(N)=O)C(O)C(Oc2ccc3c(O)c(NC(=O)c4ccc(O)c(CC=C(C)C)c4)c(=O)oc3c2C)OC1(C)C
- IC50 (curve of first compound, second compound 0.0316 µM): > 100 nM
- IC50 (curve of first compound, second compound 0.1 µM): > 100 nM
- IC50 (curve of first compound, second compound 0.316 µM): > 100 nM
- IC50 (curve of first compound, second compound 1 µM): > 100 nM
- IC50 (curve of first compound, second compound 3.16 µM): > 100 nM
- IC50 (curve of first compound, second compound 10 µM): > 100 nM
- viability, T/C (second compound 0.0316 µM, first compound 0.000316 µM): 97%
- viability, T/C (second compound 0.0316 µM, first compound 0.001 µM): 95%
- viability, T/C (second compound 0.0316 µM, first compound 0.00316 µM): 93.1%
- viability, T/C (second compound 0.0316 µM, first compound 0.01 µM): 80.6%
- viability, T/C (second compound 0.0316 µM, first compound 0.0316 µM): 73.3%
- viability, T/C (second compound 0.0316 µM, first compound 0.1 µM): 76.8%
- viability, T/C (second compound 0.1 µM, first compound 0.000316 µM): 108%
- viability, T/C (second compound 0.1 µM, first compound 0.001 µM): 92.7%
- viability, T/C (second compound 0.1 µM, first compound 0.00316 µM): 74.2%
- viability, T/C (second compound 0.1 µM, first compound 0.01 µM): 73.7%
- viability, T/C (second compound 0.1 µM, first compound 0.0316 µM): 73.4%
- viability, T/C (second compound 0.1 µM, first compound 0.1 µM): 72.5%
- viability, T/C (second compound 0.316 µM, first compound 0.000316 µM): 90.8%
- viability, T/C (second compound 0.316 µM, first compound 0.001 µM): 87.8%
- viability, T/C (second compound 0.316 µM, first compound 0.00316 µM): 90.9%
- viability, T/C (second compound 0.316 µM, first compound 0.01 µM): 91.9%
- viability, T/C (second compound 0.316 µM, first compound 0.0316 µM): 85%
- viability, T/C (second compound 0.316 µM, first compound 0.1 µM): 66.6%
- viability, T/C (second compound 1 µM, first compound 0.000316 µM): 88.9%
- viability, T/C (second compound 1 µM, first compound 0.001 µM): 77.4%
- viability, T/C (second compound 1 µM, first compound 0.00316 µM): 89.2%
- viability, T/C (second compound 1 µM, first compound 0.01 µM): 117%
- viability, T/C (second compound 1 µM, first compound 0.0316 µM): 85%
- viability, T/C (second compound 1 µM, first compound 0.1 µM): 79.6%
- viability, T/C (second compound 3.16 µM, first compound 0.000316 µM): 97.9%
- viability, T/C (second compound 3.16 µM, first compound 0.001 µM): 100%
- viability, T/C (second compound 3.16 µM, first compound 0.00316 µM): 103%
- viability, T/C (second compound 3.16 µM, first compound 0.01 µM): 83.9%
- viability, T/C (second compound 3.16 µM, first compound 0.0316 µM): 71.5%
- viability, T/C (second compound 3.16 µM, first compound 0.1 µM): 74.1%
- viability, T/C (second compound 10 µM, first compound 0.000316 µM): 72.9%
- viability, T/C (second compound 10 µM, first compound 0.001 µM): 115%
- viability, T/C (second compound 10 µM, first compound 0.00316 µM): 89.8%
- viability, T/C (second compound 10 µM, first compound 0.01 µM): 119%
- viability, T/C (second compound 10 µM, first compound 0.0316 µM): 80.4%
- viability, T/C (second compound 10 µM, first compound 0.1 µM): 59.6%

SMILES: Nc1ccn(C2OC(CO)C(O)C2(F)F)c(=O)n1 (configuration not stated)
- viability, T/C (compound 0.0316 µM): 62.2% and 68.3% and 56.9%
- viability, T/C (compound 0.1 µM): 47% and 40.3% and 54.1%
- viability, T/C (compound 0.316 µM): 44.5% and 47.4% and 45%
- viability, T/C (compound 1 µM): 44.4% and 48% and 49%
- viability, T/C (compound 3.16 µM): 44.2% and 42.1% and 40.3%
- viability, T/C (compound 10 µM): 37.1% and 38.8% and 31.7%
- IC50 (curve of compound): 86.1 nM and 73.7 nM and 318 nM

— PubChem BioAssay AID1963831 (Molecular Pharmacology Branch, DTP, NCI, 2024)
